From publication PMC6127852 (Journal of Enzyme Inhibition and Medicinal Chemistry, 2018)
In brackets after ≈: the same amount, converted by molar mass.

Assays:
calf thymus ctDNA = assay: UV–Vis titration with ctDNA (Scatchard); format: binding; conditions: PBS, pH 7; for Hypochromic effect H/%, ctDNA: UV–Vis titration, calculated by Scatchard equation; for log Ks, ctDNA: binding constant, Scatchard
Experimental: (§1) Polynucleotides were purchased as follows: polyG–polyC, polyA–polyU (Sigma-Aldrich, St. Louis, MO), calf thymus ctDNA (Aldrich). Polynucleotides were dissolved in PBS buffer, I = 0.05 mol dm^−3, pH 7.0. The calf thymus ctDNA was additionally sonicated and filtered through a […] filter. The polynucleotide concentration was spectroscopically determined as the concentration of nucleobases.
(§2) All UV–Vis absorbance measurements were conducted on a Perkin Elmer Lambda 25 spectrophotometer (Perkin Elmer, Waltham, MA). A quartz cell with a 1 cm path length was used for all absorbance studies. Compound stock solutions were 1 mM. The DNA/RNA at increasing ratios was then titrated into the compound buffer solution (1.48 × 10^−5 mol dm^−3) and the corresponding absorption spectra were recorded under the same conditions. All data were graphed and analysed using Origin software version 9.0 (OriginLab Corporation, Northampton, MA). The stability constants (Ks) and [bound compound]/[polynucleotide phosphate] ratios (n) were calculated according to the Scatchard Equation[63] ^, [64]. Values for Ks and n given in Table 1 all have satisfying correlation coefficients (0.99).
(§3) The binding constants logKs and the density of the binding sites n were calculated using Scatchard plot analysis. In addition, the binding constants Ks for compounds 8b and 8e were calculated only for titration data taken at the r ≥ 0.1, because below that ratio changes in absorption maxima were too small for accurate calculation (ΔA ≤ 0.04) (Table 1). The binding constants Ks and ratios n obtained by processing UV–Vis titration data using the Scatchard equation are summarised in Table 1.

polyA-polyU [1] = assay: UV–Vis titration with polyA-polyU (Scatchard); format: binding; conditions: for Hypochromic effect H/%, polyA-polyU: UV–Vis titration, calculated by Scatchard equation; for Hypochromic effect H/%, polyA-polyU / log Ks, polyA-polyU: PBS, pH 7; for log Ks, polyA-polyU: binding constant, Scatchard
Experimental: as §1, §2, §3

ctDNA = assay: Thermal melting (ΔTm) of ctDNA; format: binding, calf; conditions: PBS, pH 7; for ΔTm, ctDNA, r = 0.3: r = [compound]/[polynucleotide] 0.3, error ±0.5 °C
Experimental: (§4) T m experiments were conducted with a Perkin Elmer Lambda 25 spectrophotometer in 1 cm quartz cuvettes. The absorbance of the DNA/RNA-compound complex was monitored at 260 nm as a function of temperature. The absorbance of the ligands was subtracted from every curve, and the absorbance scale was normalised. The ΔT m values were calculated by subtracting T m of the free nucleic acid from T m of the complex. Every reported ΔT m value was the average of at least two measurements. The error of ΔT m is ±0.5 °C. All data were graphed and analysed using Origin software version 9.0.
(§5) Denaturation experiments were carried out at different amounts of the compounds (r = 0.1, 0.3, 0.5, and 0.7 eq; r = [compound]/[polynucleotide]) with ctDNA and polyA-polyU.

polyA-polyU [2] = assay: Thermal melting (ΔTm) of polyA-polyU; format: binding; conditions: for ΔTm, polyA-polyU, r = 0.1: PBS, pH 7; for ΔTm, polyA-polyU, r = 0.3 / ΔTm, polyA-polyU, r = 0.5: first melting midpoint
Experimental: as §4, §5

S. aureus MRSA = assay: Broth microdilution MIC, MRSA clinical strain; format: cell-based; conditions: Staphylococcus aureus, antibiotic-resistant clinical strain
Experimental: (§6) The compounds were evaluated for their in vitro anti-bacterial activity against Gram-positive bacteria: S. aureus (ATCC 25923), MRSA, methicillin-sensitive S. aureus (MSSA), E. faecalis, vancomycin-resistant E. faecium (VREF), and Gram-negative bacteria: E. coli (ATCC 25925), P. aeruginosa (ATCC 27853), A. baumannii (ATCC 19606) and ESBL-producing K. pneumoniae (ATCC 27736). Standard broth microdilution method as recommended in guidelines of Clinical and Laboratory Standards Institute[61] ^, [65] ^, [66] was applied and the minimum inhibitory concentration (MIC) of compounds was tested. In short, testing was performed in U-bottomed 96-well sterile plastic microdilution trays (Falcon 3077, Becton Dickinson Labware, Franklin Lakes, NJ) in cation (Ca^2+ and Mg^2+) adjusted Mueller–Hinton broth medium (Becton Dickinson and Co., Cockeysville, MD). All testings were performed in triplicate.

S. aureus MSSA = assay: Broth microdilution MIC, MSSA clinical strain; format: cell-based; conditions: Staphylococcus aureus
Experimental: as §6

E. faecium VRE = assay: Broth microdilution MIC, VRE clinical strain; format: cell-based; conditions: Enterococcus faecium
Experimental: as §6

S. aureus ATCC 25923 = assay: Broth microdilution MIC, S. aureus ATCC 25923; format: cell-based; conditions: Staphylococcus aureus, ATCC25923; Table S2
Experimental: as §6
(§7) The in vitro anti-bacterial activity of 5-amidinobenzimidazoles 7a–7e, 8a–8e, and 9a–9e was tested against Gram-positive bacteria including S. aureus (ATCC 25923), Enterococcus faecalis (ATCC 29212), and Gram-negative bacteria including E. coli (ATCC 25925), K. pneumoniae (ATCC 700803), P. aeruginosa (ATCC 27853), and Acinetobacter baumannii (ATCC 19606).

E. faecalis ATCC 29212 = assay: Broth microdilution MIC, E. faecalis ATCC 29212; format: cell-based; conditions: Enterococcus faecalis, ATCC29212; Table S2
Experimental: as §6, §7

E. coli ATCC 25925 = assay: Broth microdilution MIC, E. coli ATCC 25925; format: cell-based; conditions: Escherichia coli, ATCC25925; Table S2
Experimental: as §6, §7

K. pneumonia ATCC 700803 = assay: Broth microdilution MIC, K. pneumoniae ATCC 700803; format: cell-based; conditions: Klebsiella pneumoniae, ATCC700803; Table S2
Experimental: as §6, §7

P. aeruginosa ATCC 27853 = assay: Broth microdilution MIC, P. aeruginosa ATCC 27853; format: cell-based; conditions: Pseudomonas aeruginosa, ATCC27853; Table S2
Experimental: as §6, §7

A. baumannii ATCC 19606 = assay: Broth microdilution MIC, A. baumannii ATCC 19606; format: cell-based; conditions: Acinetobacter baumannii, ATCC19606; Table S2
Experimental: as §6, §7

[3] = system: bloodstream form T. brucei (strain 221); assay: Anti-trypanosomal screening, resazurin; format: cell-based; conditions: Trypanosoma brucei, mean of triplicate ± SEM
Experimental: Bloodstream form T. brucei (strain 221) were cultured in modified Iscove’s medium, as outlined[67] and trypanocidal assays were performed using 96-well microtitre plates. […] Resazurin was added after 48 h, the plates incubated for a further 16 h, and then read in a Spectramax plate reader (Molecular Devices Corporation, San Jose, CA). The data were analysed using GraphPad Prism (GraphPad, La Jolla, CA). Each drug concentration was tested in triplicate.

[4] = system: polyA-polyU (RNA, polymer) A/U; assay: UV melting at 260 nm; conditions: PBS, I = 0.05 M, cations not specified, pH 7, r = 0.3 [compound]/[polynucleotide]
[5] = system: polyA-polyU (RNA, polymer) A/U; assay: UV-Vis titration, Scatchard; conditions: PBS, I = 0.05 M (Table 1 says I = 0.015 M), cations not specified, I = 0.015 M (Methods: 0.05 M)
[6] = system: polyG-polyC (polyC-polyG) (RNA, polymer) G/C; assay: UV-Vis titration, Scatchard; conditions: PBS; for log Ks: I = 0.05 M (Table 1 says I = 0.015 M), cations not specified, I = 0.015 M (Methods: 0.05 M), pH 7, per base
polyC-polyG = assay: UV–Vis titration with polyC-polyG (Scatchard); format: binding; conditions: PBS, pH 7; for Hypochromic effect H/%, polyC-polyG: UV–Vis titration, calculated by Scatchard equation; for log Ks, polyC-polyG: binding constant, Scatchard
Experimental: as §1, §2, §3

E. coli ESBL = assay: Broth microdilution MIC, ESBL E. coli clinical strain; format: cell-based; conditions: Escherichia coli
P. aeruginosa ESBL = assay: Broth microdilution MIC, ESBL P. aeruginosa clinical strain; format: cell-based; conditions: Pseudomonas aeruginosa
[7] = footnote c: biphasic melting curve

SMILES | Hypochromic effect H/%, ctDNA (calf thymus ctDNA) [%] | log Ks, ctDNA (calf thymus ctDNA) | Hypochromic effect H/%, polyA-polyU (polyA-polyU [1]) [%] | log Ks, polyA-polyU (polyA-polyU [1]) | ΔTm, ctDNA, r = 0.5 (ctDNA) [°C] | ΔTm, ctDNA, r = 0.7 (ctDNA) [°C] | ΔTm, ctDNA, r = 0.3 (ctDNA) [°C] | ΔTm, polyA-polyU, r = 0.1 (polyA-polyU [2]) [°C] | ΔTm, polyA-polyU, r = 0.3 (polyA-polyU [2]) [°C] | MIC (S. aureus MRSA) [µg/mL] | MIC (S. aureus MSSA) [µg/mL] | MIC (E. faecium VRE) [µg/mL] | MIC (S. aureus ATCC 25923) [µg/mL] | MIC (E. faecalis ATCC 29212) [µg/mL] | MIC (E. coli ATCC 25925) [µg/mL] | MIC (K. pneumonia ATCC 700803) [µg/mL] | MIC (P. aeruginosa ATCC 27853) [µg/mL] | MIC (A. baumannii ATCC 19606) [µg/mL] | IC50 [3] [µM] | melting point [°C] | also measured
Cl.Cl.N=C(N)c1ccc2[nH]c(-c3ccc(OCc4cn(-c5ccccc5Cl)nn4)cc3)nc2c1 [Compound 7c, 2–(4-((1–(2-Chlorophenyl)-1H-1,2,3-triazol-4-yl)methoxy)phenyl)-1H-benz[d]imidazole-5-carboximidamide dihydrochloride] | 36.3 | 6.24 | 38.9 | 5.21 | 3.20 | 3.77 | 2.35 | 0.20 | 2.72 | 16 | 32 | 256 | 64 | 64 | 256 | > 256 | > 256 | > 256 | > 15 | 176 to 177 | ΔTm ([4]; error ±0.5, per base): 2.72 °C; log Ks ([5]; pH 7, per base): 5.21; binding ([6]; pH 7, changes too small for accurate calculation, compound 14.8 µM): weak
Cl.Cl.Clc1ccccc1-n1cc(COc2ccc(-c3nc4cc(C5=NCCN5)ccc4[nH]3)cc2)nn1 [Compound 9c, 5–(4,5-Dihydro-1H-imidazol-2-yl)-2–(4-((1–(2-chlorophenyl)-1H-1,2,3-triazol-4-yl)methoxy)phenyl)-1H-benz[d]imidazole dihydrochloride] | 11.7 | 6.43 | 29.3 | 5.38 | 3.31 | 3.80 | 3.55 | 2.85 | 4.27 | 8 | 128 | 64 | 128 | 32 | 256 | > 256 | > 256 | > 256 | > 15 | 194 to 196 | Hypochromic effect H/%, polyC-polyG (polyC-polyG): 5.34%; log Ks, polyC-polyG (polyC-polyG): 6.43; ΔTm, polyA-polyU, r = 0.3, second melting midpoint (polyA-polyU [2]; [7]): 13.99 °C; ΔTm ([4]; error ±0.5, biphasic, second midpoint 13.99, per base): 4.27 °C; log Ks ([5]; pH 7, per base): 5.38; log Ks [6]: 6.43
CC(C)NC(=N)c1ccc2[nH]c(-c3ccc(OCc4cn(-c5ccccc5Cl)nn4)cc3)nc2c1.Cl.Cl [Compound 8c, N-isopropyl-2–(4-((1–(2-chlorophenyl)-1H-1,2,3-triazol-4-yl)methoxy)phenyl)-1H-benz[d]imidazole-5-carboximidamide dihydrochloride] | 33.8 | 5.64 | 50.4 | 6.00 | 3.89 | 4.39 | 3.40 | 0.76 | 0.58 | 8 | 16 | 32 | 32 | 64 | 256 | > 256 | > 256 | > 256 | > 15 | 210 to 213 | Hypochromic effect H/%, polyC-polyG (polyC-polyG): 5.31%; log Ks, polyC-polyG (polyC-polyG): 6.43; ΔTm, polyA-polyU, r = 0.5 (polyA-polyU [2]; r = 0.5): 1.12 °C; log Ks ([5]; pH 7, per base): 6.00; log Ks [6]: 6.43
c1ccc(Cn2cc(COc3ccc(-c4nc5cc(C6=NCCN6)ccc5[nH]4)cc3)nn2)cc1 [Compound 9d] | 24.6 | 5.84 | – | 5.89 | 3.52 | 2.60 | 3.31 | 1.26 | 1.42 | 64 (≈ 142 µM) | 64 (≈ 142 µM) | 64 (≈ 142 µM) | 64 (≈ 142 µM) | 128 (≈ 285 µM) | 128 (≈ 285 µM) | > 256 | 128 (≈ 285 µM) | > 256 | 10.8 ± 0.4 | – | Hypochromic effect H/%, polyA-polyU (from experimental data) (polyA-polyU [1]; footnote e: calculated from experimental data): 55.5 ^e %; Hypochromic effect H/%, polyC-polyG (polyC-polyG): 5.89%; log Ks, polyC-polyG (polyC-polyG): 6.59; ΔTm, polyA-polyU, r = 0.3, second melting midpoint (polyA-polyU [2]; [7]): 10.30^c °C; ΔTm, polyA-polyU, r = 0.5 (polyA-polyU [2]; r = 0.5): 2.06 °C; ΔTm, polyA-polyU, r = 0.5, second melting midpoint (polyA-polyU [2]; r = 0.5, footnote c: biphasic melting curve): 13.29^c °C; MIC (E. coli ESBL): 128 µg/mL (≈ 285 µM); MIC (P. aeruginosa ESBL): 128 µg/mL (≈ 285 µM); IC90 [3]: > 25 µM; ΔTm ([4]; error ±0.5, biphasic, second midpoint 10.30, per base): 1.42 °C; log Ks ([5]; pH 7, n fixed, per base): 5.89; log Ks [6]: 6.59
